“And” between values parts separate entries of the source, which are not always exact repeats. Equal values may be shown once. Read-outs that look alike come from different tables or passages of the source.
How the values were obtained:
[1] = tested on: Permethrin Resistant A. aegypti (single KDR mutation); assay type: in vivo, Aedes aegypti
Experimental: (§1) In this bioassay, a wind tunnel bioassay was performed in New Mexico in July 2017. Aedes aegypti that were known to be resistant (single knockdown resistance (“KDR”) mutation) and susceptible to permethrin were used in the studies. The following solutions were applied to adult A. aegypti mosquitoes: 1) 1.5% abamectin; 2) 1.5% ivermectin; 3) 2% fenpropathrin; 4) a mixture of 2% fenpropathrin and 1.5% abamectin; 5) a mixture of 2% fenpropathrin and 1.5% abamectin; 6) a mixture of 2% fenpropathrin and 1.5% ivermectin; and 7) a mixture of 2% fenpropathrin and 1.5% ivermectin.
(§2) To determine if the mixtures provided unexpected results, the observed combined efficacy (“OCE”) was divided by the expected combined efficacy (“ECE”) wherein the expected ECE is calculated by the Abbott method: ECE=A+B−(AB/100), wherein ECE is the expected combined efficacy and in which A and B are the percent control given by the single active ingredients. If the ratio between the OCE of the mixture and the ECE of the mixture is greater than 1, then greater than expected interactions are present in the mixture. (Gisi, Synergistic Interaction of Fungicides in Mixtures, The American Phytopathological Society, 86:11, 1273-1279, 1996).

[2] = tested on: Permethrin Susceptible A. aegypti; assay: Wind tunnel bioassay, adult mosquitoes (Example 1); assay type: in vivo
Experimental: as §1, §2

[3] = tested on: Permethrin Resistant C. quinquefasciatus; assay: Wind tunnel bioassay, adult mosquitoes (Example 4); assay type: in vivo, Culex quinquefasciatus
Experimental: In this bioassay, a wind tunnel bioassay was performed in New Mexico in March 2020. C. quinquefasciatus that were known to be resistant and susceptible to permethrin were used in the studies. The following solutions were applied to adult C. quinquefasciatus mosquitoes: 1) 5% permethrin; 2) a mixture of 5% permethrin and, 1.5% abamectin; 3) a mixture of 5% permethrin, 1.5% abamectin and 1% C8, 9, 10 fatty acids; 4) a mixture of 5% permethrin and 1.5% ivermectin; and 5) a mixture of 5% permethrin, 1.5% ivermectin and 1% C8, 9, 10 fatty acids. Percent mortality was recorded at 15 minutes, 1 hour, 24 hours and 48 hours.

[4] = tested on: Permethrin Susceptible C. quinquefasciatus; assay: Wind tunnel bioassay, adult mosquitoes (Example 4); assay type: in vivo, Culex quinquefasciatus
Experimental: In this bioassay, a wind tunnel bioassay was performed in New Mexico in March 2020. C. quinquefasciatus that were known to be resistant and susceptible to permethrin were used in the studies. […] Percent mortality was recorded at 15 minutes, 1 hour, 24 hours and 48 hours.

[5] = tested on: Permethrin Resistant C. quinquefasciatus; assay type: in vivo
Experimental: (§3) If the ratio between the OCE of the mixture and the ECE of the mixture is greater than 1, then greater than expected interactions are present in the mixture. (Gisi, Synergistic Interaction of Fungicides in Mixtures, The American Phytopathological Society, 86:11, 1273-1279, 1996).
(§4) In this bioassay, a wind tunnel bioassay was performed in New Mexico in March 2020. C. quinquefasciatus that were known to be resistant and susceptible to permethrin were used in the studies. The following solutions were applied to adult C. quinquefasciatus mosquitoes: 1) 1.5% abamectin; 2) 1.5% ivermectin; 3) 5% pyrethrum; 4) a mixture of 5% pyrethrum and 1.5% abamectin; and 5) a mixture of 5% pyrethrum and 1.5% ivermectin. Percent mortality was recorded at 15 minutes, 1 hour, 24 hours and 48 hours.

[6] = tested on: Permethrin Susceptible C. quinquefasciatus; assay: Wind tunnel bioassay, adult mosquitoes (Example 5); assay type: in vivo
Experimental: as §3, §4

Molecule | % Mortality [1] | % Mortality [2] [%] | % Mortality ([3]; 1 Hr) [%] | % Mortality ([3]; 15 Min) [%] | % Mortality ([3]; 24 Hr) [%] | % Mortality ([3]; 48 Hr) [%] | % Mortality ([4]; 1 Hr) [%] | % Mortality ([4]; 15 Min) [%] | % Mortality ([4]; 24 Hr) [%] | % Mortality ([4]; 48 Hr) [%] | % Mortality ([5]; Example 5, 1 Hr) [%] | % Mortality ([5]; Example 5, 15 Min) [%] | % Mortality ([5]; Example 5, 24 Hr) [%] | % Mortality ([5]; Example 5, 48 Hr) [%] | % Mortality ([6]; 1 Hr) [%] | % Mortality ([6]; 15 Min) [%] | % Mortality ([6]; 24 Hr) [%] | % Mortality ([6]; 48 Hr) [%]
CC1(C)C(C(=O)OC(C#N)c2cccc(Oc3ccccc3)c2)C1(C)C (stereo not drawn) [2.0% fenpropathrin, fenpropathrin] | 76% and 75.8% | 99.6 | – | – | – | – | – | – | – | – | – | – | – | – | – | – | – | –
CC1(C)C(C=C(Cl)Cl)C1C(=O)OCc1cccc(Oc2ccccc2)c1 (stereo not drawn) [5% permethrin, permethrin] | – | – | 78.8 | 0 | 65 | 66.3 | 100 | 65 | 100 | 100 | – | – | – | – | – | – | – | –
abamectin [1.5% abamectin] | 91% and 91.3% | 100 | – | – | – | – | – | – | – | – | 26.3 | 0 | 78.8 | 80 | 73.8 | 15 | 91.3 | 92.5
ivermectin [1.5% ivermectin] | 64% and 62.9% | 100 | – | – | – | – | – | – | – | – | 42.5 | 0 | 88.8 | 91.3 | 62.5 | 5 | 100 | 100
